Reference: PubChem BioAssay (NCI)
Several values for one entry are separate records, joined by “and”; a condition that tells them apart may be missing. Equal entries are not always repeated.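 Five compound concentrations were applied to cells in 96-well plates for 48 hours; endpoints were derived by simple linear interpolation of the resulting dose-response curve. GI50 is the concentration that inhibits growth by half. TGI: total growth inhibition.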

Experiments:
Experiment in all cases: inhibition of tumour cell growth, NCI panel, 48 h
SNB-19 CNS = system: SNB-19 CNS
OVCAR-8 ovarian = system: OVCAR-8 ovarian
NCI-H522 lung = system: NCI-H522 lung
HS 578T breast = system: HS 578T breast
IGROV1 ovarian = system: IGROV1 ovarian
DU-145 prostate = system: DU-145 prostate
OVCAR-3 ovarian = system: OVCAR-3 ovarian
SF-268 CNS = system: SF-268 CNS
DMS 273 small cell lung = system: DMS 273 small cell lung
DLD-1 colon = system: DLD-1 colon

Structure (SMILES) | TGI (SNB-19 CNS) | TGI (OVCAR-8 ovarian) | TGI (NCI-H522 lung) | TGI (HS 578T breast) [µM] | TGI (IGROV1 ovarian) | TGI (DU-145 prostate) [µM] | TGI (OVCAR-3 ovarian) | TGI (SF-268 CNS) | GI50 (NCI-H522 lung) | GI50 (DMS 273 small cell lung) | TGI (DMS 273 small cell lung) | TGI (DLD-1 colon)
CCOS(C)(=O)=O | > 100 µM | > 100 µM | > 100 µM | > 100 | > 100 µM | > 100 | > 100 µM | > 100 µM |  |  |  | 
CCOC(=O)N1CCC(N[C@@H]2c3cc4c(cc3C(c3cc(OC)c(O)c(OC)c3)C3C(=O)OC[C@@H]32)OCO4)CC1 (some centres undefined) | 7.1 µM and 6.95 µM | 11.6 µM and 10.3 µM | 7.72 µM and 7.21 µM |  | 13.6 µM and 9.21 µM |  | 17.5 µM and 11.6 µM | 30.8 µM and > 25 µM | 1.41 µM and 3.08 µM | 0.18 µM and 1.55 µM | 6.03 µM and 9.02 µM | 30.6 µM and 14.3 µM
COc1cc2c(cc1OC)C(C(c1ccccc1)c1ccccc1)N(C)CC2 (centres undefined) | > 100 µM | > 100 µM | > 100 µM |  | > 100 µM |  | > 100 µM | > 100 µM |  |  | > 100 µM | > 100 µM
Cn1c(SCc2ccc(F)cc2)nnc1C12CC3CC(CC(C3)C1)C2 | > 100 µM | > 100 µM | > 100 µM | 85.1 | 78.2 µM | > 100 | 85.5 µM | > 100 µM |  |  |  | 
O=C1c2cc(-c3ccccc3)cnc2S(=O)(=O)N1c1ccc(Br)cc1 | 35 µM | > 100 µM | 54.6 µM | 70.6 | > 100 µM | > 100 | > 100 µM | > 100 µM |  |  |  | 
COC(C)(C)C1(O)CC[C@@H](C)CC1=O (some centres undefined) | > 100 µM | > 100 µM | > 100 µM | > 100 | > 100 µM | > 100 | > 100 µM | > 100 µM |  |  |  | 
CC(C)(C)[Si](C)(C)OCC1OC(n2ccc(=O)[nH]c2=O)C(O[Si](C)(C)C(C)(C)C)/C1=C/C#N (centres undefined) | > 100 µM | > 100 µM | > 100 µM | > 100 | > 100 µM | > 100 | > 100 µM | > 100 µM |  |  |  | 
CSC1=N/C(=C\c2ccc(C)cc2)C(=O)N1CN1CCCCC1 | > 100 µM | > 100 µM | > 100 µM | > 100 | > 100 µM | > 100 | > 100 µM | > 100 µM |  |  |  | 
O=C1OCC/C1=N/O |  | > 100 µM | > 100 µM |  | > 100 µM |  | > 100 µM | > 100 µM |  |  | > 100 µM | > 100 µM
CCOC(=O)c1cccc(N=Nc2nc[nH]c2/C=C/C(=O)OC)c1 | > 100 µM | > 100 µM | > 100 µM | > 100 | > 100 µM | > 100 | > 100 µM | > 100 µM |  |  |  | 
CCNC(=S)NNC(=O)C12CC3CC(CC(C3)C1)C2 | > 100 µM | > 100 µM | > 100 µM | > 100 | > 100 µM | > 100 | > 100 µM | > 100 µM |  |  |  | 
